From ChEMBL document CHEMBL1649502, “Characterization of cefoxitin-resistant Escherichia coli isolates from recreational beaches and private drinking water in Canada between 2004 and 2006” (2009) come the findings set out here.

A value given as a limit tells only on which side of the number the result lay.

This test relates to Escherichia coli. Description: Antibacterial activity against cefoxitin-resistant Escherichia coli by microdilution method. The test is classed as functional.
Usually MIC stands for the lowest concentration that inhibits growth of the organism. `CO/N=C(\C(=O)N[C@@H]1C(=O)N2C(C(=O)O)=C(CSC(=O)c3ccco3)CS[C@H]12)c1csc(N)n1` [CEFTIOFUR] displayed an MIC not below 8 µg/mL.

Turning to `CO[C@@]1(NC(=O)Cc2cccs2)C(=O)N2C(C(=O)O)=C(COC(N)=O)CS[C@@H]21` [CEFOXITIN], the MIC is not below 16 µg/mL.

Turning to `CN[C@@H]1[C@H](O[C@H]2[C@H](O[C@H]3[C@H](O)[C@@H](O)[C@H](N=C(N)N)[C@@H](O)[C@@H]3N=C(N)N)O[C@@H](C)[C@]2(O)C=O)O[C@@H](CO)[C@H](O)[C@H]1O` [STREPTOMYCIN], the MIC is not below 64 µg/mL.
